Measured values published in ChEMBL document CHEMBL4371025, “Discovery and evaluation of novel FAAH inhibitors in neuropathic pain model” (Bioorg Med Chem Lett, 2019).
Activity calls are given as the source filed them. The calls are words filed in the database; no cut-off is given here.

Tests used:
[1] = target: T1, Fatty-acid amide hydrolase 1 (Homo sapiens, UniProt O00519); assay: Inhibition of human transmembrane domain deficient FFAH expressed in Escherichia coli using AAMCA as substrate incubated for 1 min measured for 50 mins by fluorescence assay
T1 sequence (O00519 whole entry): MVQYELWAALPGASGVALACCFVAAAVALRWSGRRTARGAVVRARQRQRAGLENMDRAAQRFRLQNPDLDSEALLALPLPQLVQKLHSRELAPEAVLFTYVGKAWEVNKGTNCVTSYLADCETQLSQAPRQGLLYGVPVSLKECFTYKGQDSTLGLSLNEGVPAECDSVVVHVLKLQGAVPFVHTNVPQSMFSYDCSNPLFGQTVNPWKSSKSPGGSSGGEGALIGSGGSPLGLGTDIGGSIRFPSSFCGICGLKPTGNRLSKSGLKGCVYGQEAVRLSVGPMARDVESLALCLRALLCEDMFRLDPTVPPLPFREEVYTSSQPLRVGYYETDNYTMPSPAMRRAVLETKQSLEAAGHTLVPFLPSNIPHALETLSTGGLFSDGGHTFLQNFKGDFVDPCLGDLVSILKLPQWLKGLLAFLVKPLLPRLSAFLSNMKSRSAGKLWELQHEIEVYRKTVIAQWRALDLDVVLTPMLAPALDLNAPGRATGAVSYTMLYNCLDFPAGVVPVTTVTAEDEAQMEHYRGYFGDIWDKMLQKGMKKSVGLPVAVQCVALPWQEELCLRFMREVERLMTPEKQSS

[2] = target: T2, Fatty-acid amide hydrolase 1 (Rattus norvegicus) (UniProt P97612); assay: Inhibition of rat FFAH expressed in Escherichia coli at 10 uM using AAMCA as substrate incubated for 1 min measured for 50 mins by fluorescence assay relative to control
T2 sequence (whole entry): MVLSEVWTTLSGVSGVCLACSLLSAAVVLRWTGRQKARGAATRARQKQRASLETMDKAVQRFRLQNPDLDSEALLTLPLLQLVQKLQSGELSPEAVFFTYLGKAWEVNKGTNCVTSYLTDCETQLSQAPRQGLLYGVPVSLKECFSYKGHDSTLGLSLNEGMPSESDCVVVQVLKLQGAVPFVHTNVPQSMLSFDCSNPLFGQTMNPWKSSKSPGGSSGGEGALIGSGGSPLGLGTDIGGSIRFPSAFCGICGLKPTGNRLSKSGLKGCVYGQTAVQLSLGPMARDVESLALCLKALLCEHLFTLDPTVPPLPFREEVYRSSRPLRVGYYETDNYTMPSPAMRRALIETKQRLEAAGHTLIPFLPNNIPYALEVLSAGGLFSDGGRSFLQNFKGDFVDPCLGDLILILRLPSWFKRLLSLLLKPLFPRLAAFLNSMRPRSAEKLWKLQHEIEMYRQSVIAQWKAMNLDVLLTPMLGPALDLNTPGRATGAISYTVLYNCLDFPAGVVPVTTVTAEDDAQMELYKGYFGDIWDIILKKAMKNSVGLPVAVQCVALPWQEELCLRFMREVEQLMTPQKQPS

[3] = system: Rattus norvegicus; assay: Antihyperalgesic activity in Sprague-Dawley rat model of cisplatin-induced peripheral neuropathy assessed as increase in paw withdrawal latency at 10 mg/kg, po administered once daily via gavage for 7 days measured 4 hrs post last dose by plantar test; assay type: functional, organism-based
[4] = target: T3, Fatty-acid amide hydrolase 1 (Rattus norvegicus, UniProt P97612); assay: Inhibition of rat FFAH expressed in Escherichia coli using AAMCA as substrate incubated for 1 min measured for 50 mins by fluorescence assay
T3 sequence (P97612 whole entry): T2 sequence (whole entry)

[5] = Intrinsic metabolic stability in human liver microsomes assessed as metabolic turnover rate per mg protein at 1 uM preincubated for 5 mins followed by NADPH cofactor addition and measured after 30 mins by LC-MS/MS analysis; assay type: ADME, Microsome; details: 0.5 h
[6] = Intrinsic metabolic stability in rat liver microsomes assessed as metabolic turnover over per mg protein at 1 uM preincubated for 5 mins followed by NADPH cofactor addition and measured after 30 mins by LC-MS/MS analysis; assay type: ADME, Microsome; details: 0.5 h
[7] = system: Rattus norvegicus; assay: Antihyperalgesic activity in Sprague-Dawley rat model of cisplatin-induced peripheral neuropathy assessed as increase in paw withdrawal latency at 30 mg/kg, po administered as single dose via gavage measured 4 hrs post dose by plantar test; assay type: functional, organism-based
[8] = system: Rattus norvegicus; assay: Antihyperalgesic activity in Sprague-Dawley rat model of cisplatin-induced peripheral neuropathy assessed as increase in paw withdrawal latency at 3 mg/kg, po administered as single dose via gavage measured 4 hrs post dose by plantar test; assay type: functional, organism-based
[9] = system: Rattus norvegicus; assay: Antihyperalgesic activity in Sprague-Dawley rat model of cisplatin-induced peripheral neuropathy assessed as increase in paw withdrawal latency at 30 mg/kg, po administered once daily via gavage for 6 days measured 24 hrs post last dose by plantar test; assay type: functional, organism-based
[10] = system: Rattus norvegicus; assay: Antihyperalgesic activity in Sprague-Dawley rat model of cisplatin-induced peripheral neuropathy assessed as increase in paw withdrawal latency at 30 mg/kg, po administered once daily via gavage for 7 days measured 4 hrs post last dose by plantar test; assay type: functional, organism-based
[11] = target: T4, Fatty-acid amide hydrolase 1 (Homo sapiens) (UniProt O00519); assay: (§1) Reversible inhibition of human transmembrane domain deficient FFAH expressed in Escherichia coli assessed as residual activity at 10 times IC50 using AAMCA as substrate preincubated for 1 hr followed by substrate addition by fluorescence assay relative to control
T4 sequence (whole entry): T1 sequence (O00519 whole entry)

[12] = target: T4, Fatty-acid amide hydrolase 1 (Homo sapiens); assay: Substrate activity at human transmembrane domain deficient FFAH expressed in Escherichia coli assessed as parent compound remaining at 2 times IC50 measured immediately by MS analysis
[13] = target: T4, Fatty-acid amide hydrolase 1 (Homo sapiens); assay: Substrate activity at human transmembrane domain deficient FFAH expressed in Escherichia coli assessed as parent compound remaining at 2 times IC50 after 30 mins by MS analysis
[14] = target: T4, Fatty-acid amide hydrolase 1 (Homo sapiens); assay: Substrate activity at human transmembrane domain deficient FFAH expressed in Escherichia coli assessed as parent compound remaining at 2 times IC50 after 15 mins by MS analysis
[15] = target: T4, Fatty-acid amide hydrolase 1 (Homo sapiens); assay: Substrate activity at human transmembrane domain deficient FFAH expressed in Escherichia coli assessed as parent compound remaining at 2 times IC50 after 60 mins by MS analysis
[16] = target: T4, Fatty-acid amide hydrolase 1 (Homo sapiens); assay: as §1, with “addition and subsequent 10 fold compound dilution” for “addition”

IC50 [1] [µM]	IC50 [4] [µM]	Drug metabolism [5] [nmol/min/mg]	Drug metabolism [6] [nmol/min/mg]	Compound	further results
0.414				O=C(N[C@H]1CC/C(=C/c2cccc(Oc3ccc(C(F)(F)F)cn3)c2)CC1)c1cccnc1 (centres undefined)	
				Nc1ccc(C(=O)NC2CCC(=Cc3cccc(Oc4ccc(C(F)(F)F)cn4)c3)CC2)cn1 (centres undefined)	inhibition [2]: 70%
0.0018	0.0057			O=C(Nc1cccnn1)N1CCC(=Cc2cccc(Oc3ccc(C(F)(F)F)cn3)c2)CC1	Activity [3]: Active
		0.09	0.04	Cc1cc(C(=O)NC2CCC(=Cc3cccc(Oc4ccc(C(F)(F)F)cn4)c3)CC2)cnc1N (racemic)	
0.227	2.3			Cc1cc(C(=O)N[C@H]2CC/C(=C/c3cccc(Oc4ccc(C(F)(F)F)cn4)c3)CC2)cnc1N (centres undefined)	
				Cc1cc(C(=O)NC2CCC(=Cc3cccc(Oc4ccc(C(F)(F)F)cn4)c3)CC2)cnc1N (centres undefined)	Activity [7]: Active; Activity [8]: inactive; Activity [9]: Active; Activity [10]: Active
0.009				O=C(NC1CCC(=Cc2cccc(Oc3ccc(C(F)(F)F)cn3)c2)CC1)c1cccnn1 (racemic)	
	0.0646	0.04	< 0.04	O=C(NC1CCC(=Cc2cccc(Oc3ccc(C(F)(F)F)cn3)c2)CC1)c1cn[nH]c1 (racemic)	
		0.09	0.04	O=C(NC1CCC(=Cc2cccc(Oc3ccc(C(F)(F)F)cn3)c2)CC1)c1ccc(-n2nccn2)nc1 (racemic)	
0.0026	0.0115			O=C(Nc1cccnc1)N1CCC(Cc2cccc(Oc3ccc(C(F)(F)F)cn3)c2)CC1	Activity [11]: 20%; Activity [12]: 100%; Activity [13]: 54.4%; Activity [14]: 77.2%; Activity [15]: 40.4%; Activity [16]: inactive

Compound	IC50 [1] [µM]	IC50 [4] [µM]	Drug metabolism [5] [nmol/min/mg]	Drug metabolism [6] [nmol/min/mg]	further results
Nc1ccc(C(=O)N[C@H]2CC/C(=C/c3cccc(Oc4ccc(C(F)(F)F)cn4)c3)CC2)cn1 (centres undefined)	0.45				
Nc1ncc(C(=O)N[C@H]2CC/C(=C/c3cccc(Oc4ccc(C(F)(F)F)cn4)c3)CC2)cn1 (centres undefined)	0.083	1.5			
O=C(NC1CCC(=Cc2cccc(Oc3ccc(C(F)(F)F)cn3)c2)CC1)c1ccc(Cl)nc1 (racemic)	0.0051	0.0807	0.06	0.04	
